Target: T1, BRM (Homo sapiens, UniProt P51531)
T1 construct: In-Cell Western Screen of BRM Degradation in SW1573 Cells; endogenous in cells; host or cells: SW1573 cells
Assay: Western blot / In-Cell Western screen of BRM degradation in SW1573 cells
Type: cell-based
Details: overnight (18-20 hours) treatment; for Dmax: read-out: Dmax (%) (% degraded)
Method: Western Blot Screen of BRM Degradation in SW1573 Cells
(§1) To assess BRM degradation (Dmax and DC50) cells were seeded at 8000/well in 96-well black/clear-bottom plates in 180 μL DMEM growth media (containing 1% pen-strep, 1% HEPES and 10% FBS) per well. Plates were incubated overnight to allow adhesion. The next morning cells were treated by adding 20 μL of 10× target compound concentration (1% DMSO) to appropriate wells and returned to incubator for overnight (18-20 hours). The final DMSO concentration was 0.1%.
For lysing, adherent cells were washed once with 100 μL of DPBS. Cells were lysed in 40 μL of 1× RIPA+HALT protease inhibitor on ice for 10 minutes and frozen until use at −80° C. Thawed lysates were cleaned by filtration in 1.2 µm filter plates, or alternatively, were spun clean at 2300 g at 4° C. for 30 minutes.
For blotting, for each Western sample 30 μL of lysate was added to 10 μL of 4×LDS sample buffer, then denatured at 95° C. for 5 minutes in the thermal cycler and placed on ice. Samples were loaded on 4-15% Tris/Glycine gels and run for 25 minutes at 250 constant volts in 1×Tris/Glycine buffer with 4 μL of ladder and 12 μL of each sample loaded for each blot. Protein was transferred from gels to NC with BioRad Turbo dry-transfer unit with the Turbo/midi default program. All blots were rinsed with ddH2O and blocked for 1 hour at room temperature in 5% BSA in TBST (0.1%) on rocker. Blots were exposed to primary antibody in 5% BSA in TBST (0.1%) overnight at 4° C. on rocker (1:1000 for BRM (Cell Signaling Tech. cat #11966) and 1:2000 for alpha-tubulin (Cell Signaling Tech. cat #3873), a control protein. Blot was washed with TBST (0.1%) three times for 5 minutes on rocker at room temperature. Secondary antibody was added, and blots were incubated on a room temperature rocker for 1 hour with 1:18,000 anti-rabbit-HRP and/or anti-mouse-HRP in 5% BSA in TBST (0.1%). Blots were washed three times in TBST (0.1%) for 5 minutes at room temperature on the rocker. Signal was developed with Femto Maximum Sensitivity substrate for 4 minutes and blots read on ChemiDoc™.
In-Cell Western Screen of BRM Degradation in SW1573 Cells
as §1, with “DC50),” for “DC50)”, “10×” for “10× target”, “compound” for “compound concentration”
For processing, the plates were removed from incubator, the media was removed, and immediately 200 μL of cold (4° C.) DPBS was added to all wells. DPBS was then removed, and 50 μL of 4% paraformaldehyde (PFA) in DPBS (4° C.) was added to all wells, and the plates were incubated at room temperature for 20 minutes. PFA was then removed, and 200 μL of TBS-T containing 0.5% Triton X-100 was added to all wells, and the plates were incubated at room temperature for 30 minutes. TBS-T containing 0.5% Triton X-100 was then removed, and 50 μL of Li-Cor blocking solution was added, and the plates were incubated at room temperature for a minimum of one hour. The blocking solution was removed, and 50 μL of Li-Cor blocking solution containing primary antibody cocktail was added (1:1000 for BRM (Cell Signaling Tech. cat #11966) and 1:2000 for alpha-tubulin (Sigma cat #T6074), a control protein. Plates were then placed in cold room until the next day.
The next day plates were washed three times with TBS-T, 200 μL per well. Fifty […] of secondary antibody cocktail in LI-COR blocking solution (anti-rabbit_800 nm and anti-mouse_680 nm) was added to all wells (diluted 1:5000). The plates were incubated at room temperature for at least one hour while protected from light. The plates were washed twice with TBS-T, 200 μL per well. […]

T1 sequence (P51531 whole entry): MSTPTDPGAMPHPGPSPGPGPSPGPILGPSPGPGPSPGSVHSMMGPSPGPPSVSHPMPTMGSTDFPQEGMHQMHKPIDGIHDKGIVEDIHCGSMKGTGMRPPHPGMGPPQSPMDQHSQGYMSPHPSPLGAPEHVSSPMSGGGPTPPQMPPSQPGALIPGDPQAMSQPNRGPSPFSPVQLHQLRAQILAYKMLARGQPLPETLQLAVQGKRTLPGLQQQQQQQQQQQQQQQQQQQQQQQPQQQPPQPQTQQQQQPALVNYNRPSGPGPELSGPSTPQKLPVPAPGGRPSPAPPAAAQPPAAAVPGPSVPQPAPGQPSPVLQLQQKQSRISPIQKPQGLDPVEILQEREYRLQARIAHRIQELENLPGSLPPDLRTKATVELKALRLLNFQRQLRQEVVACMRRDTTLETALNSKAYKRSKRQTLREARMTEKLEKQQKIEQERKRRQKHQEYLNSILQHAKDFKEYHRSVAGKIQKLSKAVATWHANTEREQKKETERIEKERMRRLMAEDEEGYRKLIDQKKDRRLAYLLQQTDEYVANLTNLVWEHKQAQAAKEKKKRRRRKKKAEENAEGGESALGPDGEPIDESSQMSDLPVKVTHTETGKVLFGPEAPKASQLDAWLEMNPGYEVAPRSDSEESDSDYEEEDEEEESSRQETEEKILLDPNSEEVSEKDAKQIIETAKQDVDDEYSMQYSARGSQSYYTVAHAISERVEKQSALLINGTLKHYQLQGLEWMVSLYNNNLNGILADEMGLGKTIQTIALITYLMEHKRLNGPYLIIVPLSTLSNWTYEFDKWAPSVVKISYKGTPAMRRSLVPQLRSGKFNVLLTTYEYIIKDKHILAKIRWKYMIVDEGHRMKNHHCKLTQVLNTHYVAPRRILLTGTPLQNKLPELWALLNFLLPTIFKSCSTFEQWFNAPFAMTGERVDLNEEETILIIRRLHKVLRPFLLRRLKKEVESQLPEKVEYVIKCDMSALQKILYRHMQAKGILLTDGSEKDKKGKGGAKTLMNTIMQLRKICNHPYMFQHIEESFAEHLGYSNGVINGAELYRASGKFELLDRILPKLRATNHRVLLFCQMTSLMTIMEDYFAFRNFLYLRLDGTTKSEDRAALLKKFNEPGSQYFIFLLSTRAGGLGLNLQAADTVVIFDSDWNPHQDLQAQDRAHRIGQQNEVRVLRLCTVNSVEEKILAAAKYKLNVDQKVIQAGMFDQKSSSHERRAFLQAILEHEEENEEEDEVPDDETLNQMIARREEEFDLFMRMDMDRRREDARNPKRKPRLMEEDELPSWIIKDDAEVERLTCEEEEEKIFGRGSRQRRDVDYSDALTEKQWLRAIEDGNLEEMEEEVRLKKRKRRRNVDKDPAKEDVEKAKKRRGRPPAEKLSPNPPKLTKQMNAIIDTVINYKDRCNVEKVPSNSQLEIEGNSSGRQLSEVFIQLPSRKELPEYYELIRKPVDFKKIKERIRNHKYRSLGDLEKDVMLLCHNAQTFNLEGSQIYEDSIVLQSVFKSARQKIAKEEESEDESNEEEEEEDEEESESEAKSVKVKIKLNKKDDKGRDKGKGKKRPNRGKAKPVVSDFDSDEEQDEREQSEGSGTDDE

SMILES	DC50	Dmax
Cc1ncsc1-c1ccc([C@H](C)NC(=O)[C@@H]2C[C@@H](O)CN2C(=O)[C@@H](c2cc(N3CCC(CN4CCC(O[C@H]5C[C@H](n6cnc(CN7C8CCC7CN(c7cc(-c9ccccc9O)nnc7N)C8)c6)C5)CC4)CC3)no2)C(C)C)cc1 (relative stereo) [Compound 10, (2S,4R)-4-hydroxy-N-[(1S)-1-[4-(4-methyl-1,3-thiazol-5-yl)phenyl]ethyl]-1-[(2R*)-3-methyl-2-{3-[4-({4-[(1r,3r)-3-[4-({3-[3-amino-6-(2-hydroxyphenyl)pyridazin-4-yl]-3,8-diazabicyclo[3.2.1]octan-8-yl}methyl)-1H-imidazol-1-yl]cyclobutoxy]piperidin-1-yl}methyl)piperidin-1-yl]-1,2-oxazol-5-yl}butanoyl]pyrrolidine-2-carboxamide]	< 2.5 nM	> 75%
CC(C)[C@@H](C(=O)N1C[C@H](O)C[C@H]1C(=O)N[C@@H](C)c1ccc(-c2ccnn2C)cc1)c1cc(N2CCC(CN3CCC(O[C@H]4C[C@H](Cn5cc(-c6cn7cc(-c8ccccc8O)nc7nc6N)cn5)C4)CC3)CC2)no1 [Compound 42, (2S,4R)-4-hydroxy-N-[(1S)-1-[4-(1-methyl-1H-pyrazol-5-yl)phenyl]ethyl]-1-[(2R)-3-methyl-2-{3-[4-({4-[(1r,3r)-3-({4-[7-amino-2-(2-hydroxyphenyl)imidazo[1,2-a]pyrimidin-6-yl]-1H-pyrazol-1-yl}methyl)cyclobutoxy]piperidin-1-yl}methyl)piperidin-1-yl]-1,2-oxazol-5-yl}butanoyl]pyrrolidine-2-carboxamide]	< 2.5 nM	> 75%
Cc1ncsc1-c1ccc([C@H](C)NC(=O)[C@@H]2C[C@@H](O)CN2C(=O)[C@@H](c2cc(N3CCC(CN4CCC(O[C@H]5C[C@H](n6ccnc6CN6C7CCC6CN(c6cc(-c8ccccc8O)nnc6N)C7)C5)CC4)CC3)no2)C(C)C)cc1 [Compound 8, (2S,4R)-4-hydroxy-N-[(1S)-1-[4-(4-methyl-1,3-thiazol-5-yl)phenyl]ethyl]-1-[(2R)-3-methyl-2-{3-[4-({4-[(1r,3r)-3-[2-({3-[3-amino-6-(2-hydroxyphenyl)pyridazin-4-yl]-3,8-diazabicyclo[3.2.1]octan-8-yl}methyl)-1H-imidazol-1-yl]cyclobutoxy]piperidin-1-yl}methyl)piperidin-1-yl]-1,2-oxazol-5-yl}butanoyl]pyrrolidine-2-carboxamide]	< 2.5 nM	> 75%
CC(C)[C@@H](C(=O)N1C[C@H](O)C[C@H]1C(=O)N[C@@H](C)c1ccc(-c2ccnn2C)cc1)c1cc(N2CCC(CN3CCC(O[C@H]4C[C@H](n5cc(-c6cn7cc(-c8ccccc8O)nc7nc6N)cn5)C4)CC3)CC2)no1 [Compound 41, (2S,4R)-4-hydroxy-N-[(1S)-1-[4-(1-methyl-1H-pyrazol-5-yl)phenyl]ethyl]-1-[(2R)-3-methyl-2-{3-[4-({4-[(1r,3r)-3-{4-[7-amino-2-(2-hydroxyphenyl)imidazo[1,2-a]pyrimidin-6-yl]-1H-pyrazol-1-yl}cyclobutoxy]piperidin-1-yl}methyl)piperidin-1-yl]-1,2-oxazol-5-yl}butanoyl]pyrrolidine-2-carboxamide]	< 2.5 nM	> 75%
Cc1ncsc1-c1ccc([C@H](C)NC(=O)[C@@H]2C[C@@H](O)CN2C(=O)[C@@H](c2cc(N3CCC(CN4CCC(O[C@H]5C[C@H](Oc6cc(CC(F)c7cc(-c8ccccc8O)nnc7N)ccn6)C5)CC4)CC3)no2)C(C)C)cc1 (stereo partly drawn) [Compound 2, (2S,4R)-4-hydroxy-N-[(1S)-1-[4-(4-methyl-1,3-thiazol-5-yl)phenyl]ethyl]-1-[(2R)-3-methyl-2-{3-[4-({4-[(1r,3r)-3-[(4-{2-[3-amino-6-(2-hydroxyphenyl)pyridazin-4-yl]-2-fluoroethyl}pyridin-2-yl)oxy]cyclobutoxy]piperidin-1-yl}methyl)piperidin-1-yl]-1,2-oxazol-5-yl}butanoyl]pyrrolidine-2-carboxamide]	2.5 to 10 nM	> 75%
Cc1ncsc1-c1ccc([C@H](C)NC(=O)[C@@H]2C[C@@H](O)CN2C(=O)[C@@H](c2cc(N3CCC(CN4CCC(O[C@H]5C[C@H](N6CCC(CN7CC8(C7)CN(c7cc(-c9ccccc9O)nnc7N)CCN8C)CC6)C5)CC4)CC3)no2)C(C)C)cc1 [Compound 27, (2S,4R)-4-hydroxy-N-[(1S)-1-[4-(4-methyl-1,3-thiazol-5-yl)phenyl]ethyl]-1-[(2R)-3-methyl-2-{3-[4-({4-[(1r,3r)-3-[4-({8-[3-amino-6-(2-hydroxyphenyl)pyridazin-4-yl]-5-methyl-2,5,8-triazaspiro[3.5]nonan-2-yl}methyl)piperidin-1-yl]cyclobutoxy]piperidin-1-yl}methyl)piperidin-1-yl]-1,2-oxazol-5-yl}butanoyl]pyrrolidine-2-carboxamide]	2.5 to 10 nM	> 75%
Cc1ncsc1-c1ccc([C@H](C)NC(=O)[C@@H]2C[C@@H](O)CN2C(=O)[C@H](c2cc(OCCN3CCN(CCOc4cc(N5CCN(c6cc(-c7ccccc7O)nnc6N)CC56COC6)ccn4)CC3)no2)C(C)C)cn1 [Compound 16, (2S,4R)-1-[(2S)-2-{3-[2-(4-{2-[(4-{8-[3-amino-6-(2-hydroxyphenyl)pyridazin-4-yl]-2-oxa-5,8-diazaspiro[3.5]nonan-5-yl}pyridin-2-yl)oxy]ethyl}piperazin-1-yl)ethoxy]-1,2-oxazol-5-yl}-3-methylbutanoyl]-4-hydroxy-N-[(1S)-1-[6-(4-methyl-1,3-thiazol-5-yl)pyridin-3-yl]ethyl]pyrrolidine-2-carboxamide]	≥ 30 nM	–
Cc1ncsc1-c1ccc([C@H](C)NC(=O)[C@@H]2C[C@@H](O)CN2C(=O)[C@@H](c2cc(N3CCC(CN4CCC5(CC4)CC(N4CCO[C@@H](CN6CC7(CCN(c8cc(-c9ccccc9O)nnc8N)CC7)C6)C4)C5)CC3)no2)C(C)C)cc1 [Compound 18, (2S,4R)-1-[(2R)-2-{3-[4-({2-[(2S)-2-({7-[3-amino-6-(2-hydroxyphenyl)pyridazin-4-yl]-2,7-diazaspiro[3.5]nonan-2-yl}methyl)morpholin-4-yl]-7-azaspiro[3.5]nonan-7-yl}methyl)piperidin-1-yl]-1,2-oxazol-5-yl}-3-methylbutanoyl]-4-hydroxy-N-[(1S)-1-[4-(4-methyl-1,3-thiazol-5-yl)phenyl]ethyl]pyrrolidine-2-carboxamide]	10 to 30 nM	> 75%
Cc1ncsc1-c1ccc([C@H](C)NC(=O)[C@@H]2C[C@@H](O)CN2C(=O)[C@@H](c2cc(N3CCC(CN4CCC(O[C@H]5C[C@H](N6CCN(C[C@@H]7[C@H]8CN(c9cc(-c%10ccccc%10O)nnc9N)C[C@@H]78)CC6)C5)CC4)CC3)no2)C(C)C)cc1 [Compound 9, (2S,4R)-4-hydroxy-N-[(1S)-1-[4-(4-methyl-1,3-thiazol-5-yl)phenyl]ethyl]-1-[(2R)-3-methyl-2-{3-[4-({4-[(1r,3r)-3-(4-{[(1R,5S,6S)-3-[3-amino-6-(2-hydroxyphenyl)pyridazin-4-yl]-3-azabicyclo[3.1.0]hexan-6-yl]methyl}piperazin-1-yl)cyclobutoxy]piperidin-1-yl}methyl)piperidin-1-yl]-1,2-oxazol-5-yl}butanoyl]pyrrolidine-2-carboxamide]	< 2.5 nM	> 75%
